IC50 data for 4 compounds are collected here from ChEMBL document CHEMBL3588819, “Antiviral Limonoids Including Khayanolides from the Trang Mangrove Plant Xylocarpus moluccensis” (J Nat Prod, 2015).

Molecules are shown by their SMILES.

This assay deals with Influenza A virus. Nature of the assay: Antiviral activity against influenza A virus (A/Puerto Rico/8/34(H1N1)) infected in MDCK cells assessed as inhibition of virus-induced cytopathic effect incubated for 48 hrs by crystal violet staining based assay. The assay is classed as functional, organism-based. The note with it: A/Puerto Rico/8/1934(H1N1).
On to `COC(=O)C[C@@H]1[C@@]2(C)[C@H]3CC[C@]4(C)C(=C3[C@@]3(O)[C@@H](OC(C)=O)C(=O)[C@]1(C)C[C@@]23O)CC(=O)O[C@H]4c1ccoc1`, for which the IC50 turned out to be 77.1 µM.
The result for `COC(=O)C[C@H]1[C@@]2(C)C[C@]3(O)[C@H](C(=O)[C@H]2OC(C)=O)C2=C4CC(=O)O[C@@H](c5ccoc5)[C@]4(C)CC[C@@H]2[C@]13C` reads 114 µM.
For the compound `COC(=O)C[C@H]1[C@@]2(C)C[C@]3(O)[C@H](C(=O)[C@H]2OC(C)=O)C2=C(CC[C@]4(C)C2=CC(=O)O[C@H]4c2ccoc2)[C@]13C`, the IC50 is 122 µM.
The result for `NC(=O)c1ncn([C@@H]2O[C@H](CO)[C@@H](O)[C@H]2O)n1` [RIBAVIRIN] reads 186 µM.
